Results as given in patent US20120308590A1, “IMP-3 OLIGOPEPTIDES AND VACCINES INCLUDING THE SAME” (OncoTherapy Science, Inc., priority 2009, published 2012).
Residues, ends and D or L forms follow the SMILES beside them.

Legend:
Type in all cases: cell-based, human
[1] = test system: T2 cells pulsed with cognate peptides; assay: 51Cr release assay of peptide-induced CTLs against peptide-pulsed T2 cells
Procedure: (§1) The DCs were pulsed with 20 micro-g/mL of the candidate peptides in the presence of 4 micro-g/mL beta2-microglobulin (Sigma-Aldrich, St. Louis, Mo., USA) for 2 hours at 37 degrees C. in AIM-V (Invitrogen Japan, Tokyo, Japan) containing 2% heat-inactivated autologous plasma. The cells were then irradiated (40 Gy) and incubated with the CD8^+ T cells. […] After 2 days, these cultures were supplemented with human recombinant IL-2 (PeproTech, Rocky Hill, N.J., USA) to a final concentration of 20 IU/mL. Two additional weekly stimulations with peptide-loaded autologous DCs, using the same procedure, were carried out on days 7 and 14. Six days after the last stimulation, the antigen-specific responses of the induced CTLs were investigated by IFN-gamma ELISPOT assay and ^51Cr release assay. […] For ^51Cr release assay, CTLs were co-cultured with peptide-pulsed T2 cells or cancer cells as a target cells (5×10^3/well) at the indicated effector/target ratio and a standard ^51Cr release assay was done as described previously (Komori H et al., Clin Cancer Res. 2006 May 1; 12 (9):2689-97).

A549 (IMP-3+, HLA-A2-) = assay: 51Cr release assay of peptide-induced CTLs against cancer cell line; conditions: for cytotoxicity: CTLs from lung cancer patient 14 (SEQ ID NOs: 3 and 5) and patient 4 (SEQ ID NO: 6) (FIG. 5B)
Procedure: as §1, with “The expression of IMP-3 was determined by reverse transcription-polymerase chain reaction analysis. […] The DCs” for “The DCs”

MCF7 (IMP-3-, HLA-A2+) = assay: as above
Procedure: as §1, with “The expression of IMP-3 was determined by reverse transcription-polymerase chain reaction analysis. […] The DCs” for “The DCs”

PANC-1 (IMP-3+, HLA-A2+) = assay: as above
Procedure: as §1, with “The expression of IMP-3 was determined by reverse transcription-polymerase chain reaction analysis. […] The DCs” for “The DCs”

SKHep1 = assay: as above; conditions: CTL lines generated from the healthy donors (FIG. 5D)
Procedure: as §1, with “The expression of IMP-3 was determined by reverse transcription-polymerase chain reaction analysis. […] The DCs” for “The DCs”

SW620 = assay: as above; conditions: CTL lines generated from the healthy donors (FIG. 5D)
Procedure: as §1, with “The expression of IMP-3 was determined by reverse transcription-polymerase chain reaction analysis. […] The DCs” for “The DCs”

[2] = test system: MCF7/IMP-3 (MCF7 cells transfected with IMP-3 gene); assay: 51Cr release assay of peptide-induced CTLs against transfected cell line; conditions: CTL lines generated from the healthy donors (FIG. 5C)
Procedure: as §1, with “The expression of IMP-3 was determined by reverse transcription-polymerase chain reaction analysis. […] The DCs” for “The DCs”

[3] = test system: CD107a on the cell surface of CTLs; assay: CD107a exposure on the cell surface of CTLs (FACS); conditions: CTLs specific to IMP-3-552-560 stimulated with the named peptide at 1 microgram/ml for 5 hours; mouse IgG staining 0.7%
Procedure: The exposure of CD107a on the cell surface of the CTLs after antigen stimulation was detected by anti-CD107a antibody. […] These CTLs were cultured for 5 hours at 37 degrees C. and were subsequently stained with PE conjugated anti-human CD8 mAb. All peptides were used at a final concentration of 1 microgram/ml. Events shown are gated for CD8^+ T cells.

[4] = CTLs induced from PBMCs of healthy donors, not to T2 pulsed with irrelevant HIV-A2 peptide (FIG. 3B)
[5] = CTL lines generated from the healthy donors (FIG. 5D)
[6] = CTLs induced from PBMCs of healthy donor 2 (FIG. 5A)
[7] = CTL lines generated from the healthy donors (FIG. 5C)
[8] = CTLs from lung cancer patient 14 (SEQ ID NOs: 3 and 5) and patient 4 (SEQ ID NO: 6) (FIG. 5B)

Row | Compound | cytotoxic activity [1, 4] | cytotoxic activity (A549 (IMP-3+, HLA-A2-); [5]) | cytotoxic activity (A549 (IMP-3+, HLA-A2-); [6]) | cytotoxicity (MCF7 (IMP-3-, HLA-A2+); [7]) | cytotoxic activity (MCF7 (IMP-3-, HLA-A2+); [5]) | cytotoxic activity (MCF7 (IMP-3-, HLA-A2+); [6]) | cytotoxic activity (PANC-1 (IMP-3+, HLA-A2+); [6]) | cytotoxic activity (SKHep1) | cytotoxic activity (SW620) | cytotoxicity [2] | cytotoxic activity ([1]; CTLs from PBMCs of lung cancer patient 4, no activity to T2 pulsed with HIV peptide (FIG. 4B)) | cytotoxicity (A549 (IMP-3+, HLA-A2-)) | cytotoxicity (MCF7 (IMP-3-, HLA-A2+); [8]) | cytotoxic activity (PANC-1 (IMP-3+, HLA-A2+); [8]) | cytotoxic activity ([1]; CTLs from PBMCs of lung cancer patient 3, no activity to T2 pulsed with HIV peptide (FIG. 4B)) | CD8+/CD107a+ cells of all CD8+ cells [3] [%]
1 | CC(C)C[C@H](NC(=O)[C@H](CC(C)C)NC(=O)[C@@H](N)CCCNC(=N)N)C(=O)N[C@H](C(=O)N1CCC[C@H]1C(=O)N[C@H](C(=O)N[C@@H](CCC(N)=O)C(=O)N[C@@H](Cc1ccccc1)C(=O)N[C@H](C(=O)O)C(C)C)[C@@H](C)O)C(C)C [SEQ ID NO: 1, RLLVPTQFV] (H-RLLVPTQFV-OH) | exhibited cytotoxic activity | not against | no cytotoxic activity | not against | not against | no cytotoxic activity | showed cytotoxic activity | exhibited cytotoxic activity | exhibited cytotoxic activity | exhibited cytotoxicity |  |  |  |  |  | 
2 | CC[C@H](C)[C@H](NC(=O)[C@H](CCC(=O)O)NC(=O)[C@H](CCC(N)=O)NC(=O)[C@@H](NC(=O)[C@@H](N)CCCCN)[C@@H](C)CC)C(=O)N[C@@H](CC(C)C)C(=O)N[C@H](C(=O)N[C@@H](CCC(N)=O)C(=O)N[C@H](C(=O)O)C(C)C)[C@@H](C)O [SEQ ID NO: 3, KIQEILTQV] (H-KIQEILTQV-OH) |  |  | no cytotoxic activity |  |  | no cytotoxic activity | showed cytotoxic activity |  |  |  | showed cytotoxic activity | without showing cytotoxicity | without showing cytotoxicity | showed cytotoxic activity |  | 
3 | CC[C@H](C)[C@H](NC(=O)[C@@H](N)CCCCN)C(=O)N1CCC[C@H]1C(=O)N[C@H](C(=O)N[C@@H](CO)C(=O)NCC(=O)N1CCC[C@H]1C(=O)N[C@@H](Cc1ccccc1)C(=O)N[C@@H](CC(C)C)C(=O)O)C(C)C [SEQ ID NO: 5, KIPVSGPFL] (H-KIPVSGPFL-OH) |  |  | no cytotoxic activity |  |  | no cytotoxic activity | showed cytotoxic activity |  |  |  |  | without showing cytotoxicity | without showing cytotoxicity | showed cytotoxic activity | showed cytotoxic activity | 
4 | CC(C)C[C@H](NC(=O)[C@@H](N)CC(N)=O)C(=O)N[C@@H](CO)C(=O)N[C@@H](CO)C(=O)N[C@@H](C)C(=O)N[C@@H](CCC(=O)O)C(=O)N[C@H](C(=O)N[C@H](C(=O)N[C@H](C(=O)O)C(C)C)C(C)C)C(C)C [SEQ ID NO: 6, NLSSAEVVV] (H-NLSSAEVVV-OH) | exhibited cytotoxic activity | not against | no cytotoxic activity | not against | not against | no cytotoxic activity | showed cytotoxic activity | exhibited cytotoxic activity | exhibited cytotoxic activity | exhibited cytotoxicity |  | without showing cytotoxicity | without showing cytotoxicity | showed cytotoxic activity |  | 
5 | SLYNTYATL [HIV peptide] |  |  |  |  |  |  |  |  |  |  |  |  |  |  |  | 1.5
